Data reported in patent publication US9365584B2, “Thieno [2,3-B] pyridinedione activators of AMPK and therapeutic uses thereof” (Poxel, priority 2009, dated 2016).

System: AMPK
Experiment: AMPK enzyme activity assay (Delfia technology, AMARA peptide substrate)
Assay type: biochemical
Settings: compound at 30 μM vs AMP at 200 μM
In short: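 Value is the ratio of compound (30 μM) to AMP (200 μM) response, each as % of basal control. Phosphorylation of the AMARA peptide after AMPK addition was read by Delfia with an anti-phosphoserine antibody.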

Row | SMILES | Activity: Ratio between the % of control (basal activity) of compound of formula (1) at 30 μM and the % of control (basal activity) of AMP (natural substrate) at 200 μM
1 | O=C1Nc2scc(-c3ccc(Br)cc3)c2C(=O)C1(F)c1ccccn1 (stereo not shown) [No 188, 3-(4-bromophenyl)-5-fluoro-5-(2-pyridyl)-7H-thieno[2,3-b]pyridine-4,6-dione] | A (0%<A<50%)
2 | O=C1Nc2scc(-c3ccc(F)cc3)c2C(=O)C1(F)c1ccccc1 (stereo not shown) [No 189, 5-fluoro-3-(4-fluorophenyl)-5-phenyl-7H-thieno[2,3-b]pyridine-4,6-dione] | A (0%<A<50%)
3 | O=C1Nc2scc(-c3cccc(F)c3)c2C(=O)C1(F)c1ccccc1 (stereo not shown) [No 190, 5-fluoro-3-(3-fluorophenyl)-5-phenyl-7H-thieno[2,3-b]pyridine-4,6-dione] | B (50%≦B<75%)
4 | Cc1ccc(-c2c(Cl)sc3c2C(=O)C(F)(c2ccccc2)C(=O)N3)c(O)c1F (stereo not shown) [No 191, 2-chloro-5-fluoro-3-(3-fluoro-2-hydroxy-4-methyl-phenyl)-5-phenyl-7H-thieno[2,3-b]pyridine-4,6-dione] | C (C≧75%)
5 | Cc1ccc(-c2c(C)sc3c2C(=O)C(F)(c2ccccc2)C(=O)N3)c(O)c1F (stereo not shown) [No 192, 5-fluoro-3-(3-fluoro-2-hydroxy-4-methyl-phenyl)-2-methyl-5-phenyl-7H-thieno[2,3-b]pyridine-4,6-dione] | C (C≧75%)
6 | O=C1Nc2scc(-c3cnccn3)c2C(=O)C1(F)c1ccccc1 (stereo not shown) [No 193, 5-fluoro-5-phenyl-3-pyrazin-2-yl-7H-thieno[2,3-b]pyridine-4,6-dione] | A (0%<A<50%)
7 | O=C1Nc2scc(-c3ccc(O)c(F)c3)c2C(=O)C1(F)c1ccccc1 (stereo not shown) [No 194, 5-fluoro-3-(3-fluoro-4-hydroxy-phenyl)-5-phenyl-7H-thieno[2,3-b]pyridine-4,6-dione] | C (C≧75%)
8 | COc1ccc(-c2c(F)sc3c2C(=O)C(F)(c2ccccc2)C(=O)N3)cc1F (stereo not shown) [No 195, 2,5-difluoro-3-(3-fluoro-4-methoxy-phenyl)-5-phenyl-7H-thieno[2,3-b]pyridine-4,6-dione] | C (C≧75%)
9 | O=C(O)c1cccc(-c2csc3c2C(=O)C(F)(c2ccccc2)C(=O)N3)c1 (stereo not shown) [No 196, 3-(5-fluoro-4,6-dioxo-5-phenyl-7H-thieno[2,3-b]pyridin-3-yl)benzoic acid] | A (0%<A<50%)
10 | O=C(O)c1cccc(-c2c(F)sc3c2C(=O)C(F)(c2ccccc2)C(=O)N3)c1 (stereo not shown) [No 197, 3-(2,5-difluoro-4,6-dioxo-5-phenyl-7H-thieno[2,3-b]pyridin-3-yl)benzoic acid] | A (0%<A<50%)
11 | O=C(O)c1ccc(-c2csc3c2C(=O)C(F)(c2ccccc2)C(=O)N3)cc1 (stereo not shown) [No 198, 4-(5-fluoro-4,6-dioxo-5-phenyl-7H-thieno[2,3-b]pyridin-3-yl)benzoic acid] | A (0%<A<50%)
12 | COc1ccc(-c2csc3c2C(=O)C(F)(c2ccc(F)cc2)C(=O)N3)cc1 (stereo not shown) [No 199, 5-fluoro-5-(4-fluorophenyl)-3-(4-methoxyphenyl)-7H-thieno[2,3-b]pyridine-4,6-dione] | B (50%≦B<75%)
13 | COc1ccc(-c2c(F)sc3c2C(=O)C(F)(c2ccc(F)cc2)C(=O)N3)cc1 (stereo not shown) [No 200, 2,5-difluoro-5-(4-fluorophenyl)-3-(4-methoxyphenyl)-7H-thieno[2,3-b]pyridine-4,6-dione] | B (50%≦B<75%)
14 | COc1ccc(-c2csc3c2C(=O)C(F)(c2ccccc2)C(=O)N3)cc1 (stereo not shown) [No 201, 5-fluoro-3-(4-methoxyphenyl)-5-phenyl-7H-thieno[2,3-b]pyridine-4,6-dione] | B (50%≦B<75%)
15 | COc1ccc(-c2c(F)sc3c2C(=O)C(F)(c2ccccc2)C(=O)N3)cc1 (stereo not shown) [No 202, 2,5-difluoro-3-(4-methoxyphenyl)-5-phenyl-7H-thieno[2,3-b]pyridine-4,6-dione] | B (50%≦B<75%)
16 | O=C1Nc2scc(-c3ccc(O)cc3)c2C(=O)C1(F)c1ccccc1 (stereo not shown) [No 203, 5-fluoro-3-(4-hydroxyphenyl)-5-phenyl-7H-thieno[2,3-b]pyridine-4,6-dione] | C (C≧75%)

Row | SMILES | Activity: Ratio between the % of control (basal activity) of compound of formula (1) at 30 μM and the % of control (basal activity) of AMP (natural substrate) at 200 μM
17 | O=C1Nc2scc(-c3cccc(O)c3)c2C(=O)C1(F)c1ccccc1 (stereo not shown) [No 204, 5-fluoro-3-(3-hydroxyphenyl)-5-phenyl-7H-thieno[2,3-b]pyridine-4,6-dione] | C (C≧75%)
18 | COc1cccc(-c2csc3c2C(=O)C(F)(c2ccccc2)C(=O)N3)c1 (stereo not shown) [No 205, 5-fluoro-3-(3-methoxyphenyl)-5-phenyl-7H-thieno[2,3-b]pyridine-4,6-dione] | B (50%≦B<75%)
19 | COc1cccc(-c2c(F)sc3c2C(=O)C(F)(c2ccccc2)C(=O)N3)c1 (stereo not shown) [No 206, 2,5-difluoro-3-(3-methoxyphenyl)-5-phenyl-7H-thieno[2,3-b]pyridine-4,6-dione] | C (C≧75%)
20 | COc1ccccc1C1(F)C(=O)Nc2scc(-c3ccccc3)c2C1=O (stereo not shown) [No 207, 5-fluoro-5-(2-methoxyphenyl)-3-phenyl-7H-thieno[2,3-b]pyridine-4,6-dione] | A (0%<A<50%)
21 | O=C1Nc2scc(-c3ccncc3)c2C(=O)C1(F)c1ccccc1 (stereo not shown) [No 208, 5-fluoro-5-phenyl-3-(4-pyridyl)-7H-thieno[2,3-b]pyridine-4,6-dione] | A (0%<A<50%)
22 | Cc1cccc(C2(F)C(=O)Nc3sc(Cl)c(-c4cccc(F)c4)c3C2=O)c1 (stereo not shown) [No 210, 2-chloro-5-fluoro-3-(3-fluorophenyl)-5-(m-tolyl)-7H-thieno[2,3-b]pyridine-4,6-dione] | C (C≧75%)
23 | N#Cc1cccc(C2(F)C(=O)Nc3sc(Cl)c(-c4cccc(F)c4)c3C2=O)c1 (stereo not shown) [No 211, 3-[2-chloro-5-fluoro-3-(3-fluorophenyl)-4,6-dioxo-7H-thieno[2,3-b]pyridin-5-yl]benzonitrile] | C (C≧75%)
24 | O=C1Nc2sc(Cl)c(-c3cccc(F)c3)c2C(=O)C1(F)c1cccnc1 (stereo not shown) [No 212, 2-chloro-5-fluoro-3-(3-fluorophenyl)-5-(3-pyridyl)-7H-thieno[2,3-b]pyridine-4,6-dione] | C (C≧75%)
25 | Cc1cccc(-c2c(Cl)sc3c2C(=O)C(F)(c2ccccc2)C(=O)N3)c1O (stereo not shown) [No 213, 2-chloro-5-fluoro-3-(2-hydroxy-3-methyl-phenyl)-5-phenyl-7H-thieno[2,3-b]pyridine-4,6-dione] | C (C≧75%)
26 | O=C1Nc2scc(-c3cccnc3)c2C(=O)C1(F)c1ccccc1 (stereo not shown) [No 214, 5-fluoro-5-phenyl-3-(3-pyridyl)-7H-thieno[2,3-b]pyridine-4,6-dione] | A (0%<A<50%)
27 | O=C1Nc2sc(Cl)c(-c3ccc(F)cc3O)c2C(=O)C1(F)c1cccc(F)c1 (stereo not shown) [No 215, 2-chloro-5-fluoro-3-(4-fluoro-2-hydroxy-phenyl)-5-(3-fluorophenyl)-7H-thieno[2,3-b]pyridine-4,6-dione] | C (C≧75%)
28 | O=C1Nc2sc(Cl)c(-c3ccc(F)cc3O)c2C(=O)C1(Cl)c1ccccc1 (stereo not shown) [No 216, 2,5-dichloro-3-(4-fluoro-2-hydroxy-phenyl)-5-phenyl-7H-thieno[2,3-b]pyridine-4,6-dione] | C (C≧75%)
29 | Cc1ccc(-c2c(Cl)sc3c2C(=O)C(F)(c2cccc(C#N)c2)C(=O)N3)cc1C (stereo not shown) [No 217, 3-[2-chloro-3-(3,4-dimethylphenyl)-5-fluoro-4,6-dioxo-7H-thieno[2,3-b]pyridin-5-yl]benzonitrile] | C (C≧75%)
30 | CS(=O)(=O)c1ccc(C2(F)C(=O)Nc3sc(Cl)c(-c4ccc(F)cc4O)c3C2=O)cc1 (stereo not shown) [No 218, 2-chloro-5-fluoro-3-(4-fluoro-2-hydroxy-phenyl)-5-(4-methylsulfonylphenyl)-7H-thieno[2,3-b]pyridine-4,6-dione] | C (C≧75%)
31 | COc1ccc(C2(F)C(=O)Nc3sc(Cl)c(-c4ccc(F)cc4O)c3C2=O)cc1OC (stereo not shown) [No 219, 2-chloro-5-(3,4-dimethoxyphenyl)-5-fluoro-3-(4-fluoro-2-hydroxy-phenyl)-7H-thieno[2,3-b]pyridine-4,6-dione] | C (C≧75%)
